In ChEMBL document CHEMBL6078666, “Discovery of Novel Coumarin Pleuromutilin Derivatives as Potent Anti-MRSA Agents” (J Med Chem, 2024):
Converted amounts (≈) assume the structure as drawn. The source made the active and inactive calls. No cut-off for these calls is given here.

Columns and labels:
[1] = Hemolytic activity in rabbit RBC assessed as hemolysis rate at 0 to 100 ug/ml incubated for 1 hr by microplate reader analysis relative to control; assay type: toxicity, cell-based, Oryctolagus cuniculus, Erythrocyte; details: rabbit red blood cells, dose 0-100 µg/ml, read-out: Activity
Staphylococcus aureus [2] = assay: Bactericidal activity against methicillin-resistant Staphylococcus aureus ATCC 33591 at 1 times MIC measured upto 24 hrs by time kill assay; assay type: functional, organism-based
Staphylococcus aureus [3] = assay: Antibacterial activity against Staphylococcus aureus ATCC 33591 measured after 9 days; assay type: functional, organism-based; details: time 9.0 day
Staphylococcus aureus [4] = assay: Ratio of MBC to MIC against methicillin-resistant Staphylococcus aureus ATCC 33591; assay type: functional
[5] = test system: Staphylococcus epidermidis; assay: Antibacterial activity against methicillin-resistant Staphylococcus epidermidis clinical isolate 202409454 assessed as bacterial growth inhibition measured after 20 hrs by broth dilution method; assay type: functional
[6] = MRT in mouse at 5 mg/kg, iv measured after 8 hrs; assay type: ADME, organism-based; details: in vivo
Staphylococcus aureus [7] = assay: (§1) Antibacterial activity against methicillin-resistant Staphylococcus aureus ATCC 33591 infected in female C57 mouse systemic infection model assessed as reduction in tubular necrosis in kidney at 40 mg/kg, iv administered twice daily and measured after 7 days by H and E staining based analysis; assay type: functional, organism-based; details: time 7.0 day
Streptococcus pneumoniae [8] = assay: Ratio of MBC to MIC against penicillin-resistant Streptococcus pneumoniae ATCC 51916; assay type: functional
Staphylococcus aureus [9] = assay: Ratio of MBC to MIC against Staphylococcus aureus ATCC 43300; assay type: functional
Staphylococcus aureus [10] = assay: as §1, with “inflammatory cell aggregation” for “tubular necrosis”, “lung” for “kidney”; assay type: functional, organism-based; details: time 7.0 day
[11] = test system: Staphylococcus epidermidis; assay: Ratio of MBC to MIC against Staphylococcus epidermidis ATCC 51625; assay type: functional
Staphylococcus aureus [12] = assay: Bactericidal activity against methicillin-resistant Staphylococcus aureus ATCC 33591 at 4 to 8 times MIC measured after 6 to 8 hrs by time kill assay; assay type: functional, organism-based; details: time 6-8 hrs
[13] = Acute toxicity in po dosed female C57 mouse assessed as lethal dose measured after 48 hrs; assay type: organism-based; details: in vivo
Enterococcus faecium [14] = assay: Ratio of MBC to MIC against vancomycin-resistant Enterococcus faecium ATCC 51559; assay type: functional
[15] = Half life in mouse at 5 mg/kg, iv measured after 8 hrs; assay type: ADME, organism-based; details: in vivo
[16] = Hemolytic activity in rabbit RBC assessed as hemolysis rate at 200 ug/ml incubated for 1 hr by microplate reader analysis relative to control; assay type: toxicity, cell-based, Oryctolagus cuniculus, Erythrocyte; details: rabbit red blood cells, at 200 µg/mL, read-out: Activity
Staphylococcus aureus [17] = assay: as §1, with “appearance of loosely arranged cells” for “tubular necrosis”, “spleen” for “kidney”; assay type: functional, organism-based; details: time 7.0 day
A549 = assay: Cytotoxicity against human A549 cells at 0 to 40 ug/ml measured after 24 hrs by MTT assay relative to control; assay type: functional; details: dose 0-40 µg/ml
Enterococcus faecium [18] = assay: Ratio of MBC to MIC against vancomycin-resistant Enterococcus faecium ATCC 700221; assay type: functional
Streptococcus pneumoniae [19] = assay: Antibacterial activity against penicillin-resistant Streptococcus pneumoniae ATCC 51916 assessed as bacterial growth inhibition measured after 20 hrs by broth dilution method; assay type: functional
Staphylococcus aureus [20] = assay: Antibiofilm activity in methicillin-resistant Staphylococcus aureus ATCC 33591 measured after 24 hrs by MTT assay; assay type: functional
Staphylococcus aureus [21] = assay: as §1, with “distorted myocardial fibers” for “tubular necrosis”, “heart” for “kidney”; assay type: functional, organism-based; details: time 7.0 day
Staphylococcus aureus [22] = assay: Antibacterial activity against methicillin resistant Staphylococcus aureus ATCC 33591 assessed as post antibiotic effect at 2 times MIC by time kill assay; assay type: functional
Staphylococcus aureus [23] = assay: Antibacterial activity against methicillin-resistant Staphylococcus aureus ATCC 33591 infected in female C57 mouse systemic infection model assessed as effective dose; assay type: functional
Staphylococcus aureus [24] = assay: Antibacterial activity against methicillin-resistant Staphylococcus aureus ATCC 33591 infected in female C57 mouse systemic infection model assessed as reduction in bacterial load in lung at 40 mg/kg, iv administered twice daily and measured after 7 days; assay type: functional; details: time 7 day
[25] = Volume of distribution at steady state in mouse at 5 mg/kg, iv measured after 8 hrs; assay type: ADME, organism-based; details: in vivo, read-out: Vdss
Staphylococcus aureus [26] = assay: Antibacterial activity against methicillin-resistant Staphylococcus aureus ATCC 43300 assessed as bacterial growth inhibition measured after 20 hrs by broth dilution method; assay type: functional
Staphylococcus aureus [27] = assay: Antibacterial activity against methicillin-resistant Staphylococcus aureus ATCC 33591 infected in female C57 mouse systemic infection model assessed as restoration of cell morphology at 40 mg/kg, iv administered twice daily and measured after 7 days by H and E staining based analysis; assay type: functional, organism-based; details: time 7.0 day
Staphylococcus aureus [28] = assay: Antibacterial activity against methicillin-resistant Staphylococcus aureus clinical isolate 202405157 assessed as bacterial growth inhibition measured after 20 hrs by broth dilution method; assay type: functional
Staphylococcus aureus [29] = assay: Antibacterial activity against methicillin-resistant Staphylococcus aureus ATCC 33591 infected in female C57 mouse systemic infection model assessed as survival rate at 20 mg/kg, po measured upto 7 days relative to control; assay type: functional; details: ATCC 33591, 168 h, time <= 7 day
Staphylococcus aureus [30] = assay: Antibacterial activity against methicillin-resistant Staphylococcus aureus ATCC 33591 infected in female C57 mouse systemic infection model assessed as survival rate at 5 mg/kg, po measured upto 7 days relative to control; assay type: functional; details: ATCC 33591, 168 h, time <= 7 day
Staphylococcus aureus [31] = assay: Ratio of MBC to MIC against methicillin-resistant Staphylococcus aureus clinical isolate 202313160; assay type: functional
[32] = test system: Staphylococcus epidermidis; assay: Antibacterial activity against Staphylococcus epidermidis ATCC 51625 assessed as bacterial growth inhibition measured after 20 hrs by broth dilution method; assay type: functional
Staphylococcus aureus [33] = assay: Antibacterial activity against methicillin-resistant Staphylococcus aureus clinical isolate 202311772 assessed as bacterial growth inhibition measured after 20 hrs by broth dilution method; assay type: functional
Enterococcus faecium [34] = assay: Antibacterial activity against vancomycin-resistant Enterococcus faecium clinical isolate 202308456 assessed as bacterial growth inhibition measured after 20 hrs by broth dilution method; assay type: functional
Staphylococcus aureus [35] = assay: as §1, with “number of inflammatory cells” for “tubular necrosis”, “heart” for “kidney”; assay type: functional, organism-based; details: time 7.0 day
Staphylococcus aureus [36] = assay: Antibacterial activity against methicillin-resistant Staphylococcus aureus ATCC 33591 infected in female C57 mouse systemic infection model assessed as reduction in vacuolation in heart at 40 mg/kg, iv administered twice daily and measured after 7 days by H and E staining based analysis; assay type: functional, organism-based; details: time 7.0 day
Enterococcus faecium [37] = assay: Antibacterial activity against vancomycin-resistant Enterococcus faecium ATCC 700221 assessed as bacterial growth inhibition measured after 20 hrs by broth dilution method; assay type: functional

Question: What does the source list for C=C[C@]1(C)C[C@@H](OC(=O)CSc2cc(=O)oc3cc(OC)ccc23)[C@]2(C)[C@H](C)CC[C@]3(CCC(=O)[C@H]32)[C@@H](C)[C@@H]1O?
Answer: hemolysis at 1 h [1]: < 4%; Activity (Staphylococcus aureus [2]): Active; Activity (Staphylococcus aureus [3]): inactive; Ratio (Staphylococcus aureus [4]): 2; MIC [5]: 0.063 µg/mL (≈ 0.111 µM); MRT [6]: 0.61 h; Activity (Staphylococcus aureus [7]): Active; Ratio (Streptococcus pneumoniae [8]): 2; Ratio (Staphylococcus aureus [9]): >4; Activity (Staphylococcus aureus [10]): Active; Ratio [11]: 4; Activity (Staphylococcus aureus [12]): Active; LD50 at 48 h [13]: 2000 mg/kg; Ratio (Enterococcus faecium [14]): 1; half-life [15]: 1.52 h; hemolysis at 1 h, 200 ug/ml [16]: < 8%; Activity (Staphylococcus aureus [17]): Active; Activity (A549): >85%; Ratio (Enterococcus faecium [18]): 1; MIC (Streptococcus pneumoniae [19]): 0.063 µg/mL (≈ 0.111 µM); MBEC (Staphylococcus aureus [20]): 8 µg/mL; Activity (Staphylococcus aureus [21]): Active; PAE (Staphylococcus aureus [22]): 1.51 h; ED50 (Staphylococcus aureus [23]): 11.2 mg/kg; Activity (Staphylococcus aureus [24]): 2.21 log10CFU/g; Vd [25]: 1.76 L/kg; MIC (Staphylococcus aureus [26]): 0.031 µg/mL (≈ 0.0545 µM); Activity (Staphylococcus aureus [27]): Active; MIC (Staphylococcus aureus [28]): 0.063 µg/mL (≈ 0.111 µM); survival at 20 mg/kg (Staphylococcus aureus [29]): 60%; survival at 5 mg/kg (Staphylococcus aureus [30]): 40%; Ratio (Staphylococcus aureus [31]): 2; MIC [32]: 0.016 µg/mL (≈ 0.0281 µM); MIC (Staphylococcus aureus [33]): 0.031 µg/mL (≈ 0.0545 µM); MIC (Enterococcus faecium [34]): 0.031 µg/mL (≈ 0.0545 µM); Activity (Staphylococcus aureus [35]): Active; Activity (Staphylococcus aureus [36]): Active; MIC (Enterococcus faecium [37]): 0.031 µg/mL (≈ 0.0545 µM)
